What is called melting point is the temperature, or range, at which the solid turns liquid.

For one data set, the target named is T1, Human LRS proteins (Homo sapiens, UniProt Q9P2J5).
T1 construct: His
Description: Surface plasmon resonance (SPR) binding to LRS. The conditions noted are these: purified LRS. On the procedure: The dissociation […] constant (KD) toward His-LRS proteins was determined by using SPR instrument (Biacore T100) at the national center for inter-university research facilities (NCIRF) in Seoul National University. The carboxyl group on the surface of CMS chip was able to be replaced with protein by forming reactive succinimide ester with 1-ethyl-3-(3-dimethylaminopropyl)-carbodiimide (EDC) and N-hydroxysuccinimide (NHS). Human LRS proteins (1.5×PBS, pH 7.3) were immobilized on flow cell 2 (imed RU; 12000) by leading to amide bond formation with NHS ester. The residual NHS ester was quenched with 1 M ethanolamine-HCl (pH 8.0). Amide bond formation alone, without any protein t, was performed on flow cell 1 as a control. The immobilization process was proceeded on PBS buffer. After the immobilization of hLRS, compounds were flowed for 60 s at a flow rate of 20 μl min^−1 in various concentrations from 1 μM to […] was then flowed at the same flow rate for 200 s for dissociation of compounds. As a running buffer, 1×PBS (pH 7.3) containing 3% DMSO and 0.005% P2O was used. The experiment was performed at 25° C. Data analysis was done by using Biacore T100 Evaluation software. […] The dissociation constant (KD) was calculated by fitting to the 1:1 binding model.
(In general: Surface plasmon resonance follows binding to a sensor surface in real time, without labels.)

For another data set, the target named is LRS-RagD interaction (Homo sapiens, UniProt Q9P2J5). Description: ELISA of LRS-RagD interaction. In kind it is binding. Here is the method: His-tagged human LRS proteins were diluted in carbonate buffer (100 mM, pH 9.6) to the concentration of 0.5 ng μl^−1. […] Protein from each well was removed and washed three times with PBS mixed with 0.05% Tweed® 20 (PBST), subjected to blocking with PBS containing 5% bovine serum albumin (BSA) for 2 hours. Each well was washed with PBST, followed by the treatment of a compound and GST-tagged human RagD protein simultaneously for 3 hours. GST protein itself was used as a negative control. Each well was treated with GST antibody diluted in PBST and incubated at room temperature for 1 h. After washing with PBST, the HRP-conjugated anti-horse IgG secondary antibody was incubated at room temperature for 1 h. TMB was added to each well for colorimetric development. […] To stop the chemical reaction, the treatment with 1 m H3PO4 was done. Finally, absorbance at 450 nm were measured.
Sequence of LRS-RagD interaction (Q9P2J5 whole entry): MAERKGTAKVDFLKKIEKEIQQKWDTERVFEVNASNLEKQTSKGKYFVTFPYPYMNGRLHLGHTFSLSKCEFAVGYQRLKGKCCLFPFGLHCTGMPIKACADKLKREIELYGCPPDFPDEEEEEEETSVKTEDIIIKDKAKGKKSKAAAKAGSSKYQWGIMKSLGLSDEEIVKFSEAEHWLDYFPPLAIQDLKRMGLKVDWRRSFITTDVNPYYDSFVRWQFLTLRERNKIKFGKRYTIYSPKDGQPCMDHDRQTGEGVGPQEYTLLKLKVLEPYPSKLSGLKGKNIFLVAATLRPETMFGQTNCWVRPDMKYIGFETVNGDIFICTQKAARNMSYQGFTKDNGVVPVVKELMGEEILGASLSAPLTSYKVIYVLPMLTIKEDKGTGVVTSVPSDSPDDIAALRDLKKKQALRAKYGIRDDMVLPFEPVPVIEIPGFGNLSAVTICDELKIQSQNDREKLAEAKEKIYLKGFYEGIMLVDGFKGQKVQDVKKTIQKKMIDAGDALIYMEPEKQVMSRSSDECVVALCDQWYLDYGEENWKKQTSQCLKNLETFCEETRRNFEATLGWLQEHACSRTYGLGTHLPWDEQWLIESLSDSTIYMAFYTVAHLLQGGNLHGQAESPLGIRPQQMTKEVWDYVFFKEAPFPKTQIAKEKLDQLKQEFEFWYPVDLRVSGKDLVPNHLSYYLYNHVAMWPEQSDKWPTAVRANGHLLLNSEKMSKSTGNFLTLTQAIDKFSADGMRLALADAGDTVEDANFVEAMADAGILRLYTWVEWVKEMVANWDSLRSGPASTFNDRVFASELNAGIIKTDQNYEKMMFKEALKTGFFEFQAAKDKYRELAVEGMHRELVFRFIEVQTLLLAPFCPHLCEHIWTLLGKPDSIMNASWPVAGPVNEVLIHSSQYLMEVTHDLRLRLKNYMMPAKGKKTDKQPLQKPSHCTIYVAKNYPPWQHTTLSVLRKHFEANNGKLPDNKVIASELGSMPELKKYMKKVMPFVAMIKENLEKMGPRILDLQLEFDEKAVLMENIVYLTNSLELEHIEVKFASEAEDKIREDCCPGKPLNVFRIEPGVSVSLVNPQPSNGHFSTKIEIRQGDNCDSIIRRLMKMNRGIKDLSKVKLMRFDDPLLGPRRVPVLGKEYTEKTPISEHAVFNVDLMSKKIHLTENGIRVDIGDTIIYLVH
In general terms: In an ELISA, binding on a coated surface is turned into a signal by an enzyme label.

The next data set deals with HeLa cells. In words: mCherry-GFP-LC3 puncta imaging. In kind it is cell-based, human. The conditions noted are these: 6 h, 200 nM Rap, 10 nM Baf, 20 μM 21f. On the procedure:
HeLa cells were seeded in chambered coverglass from Nunc and incubated for 24 h. mCherry-GFP-LC3 plasmid was transfected to the cells using Lipofectamine™ 2000 solution. Transfection was proceeded according to manufacturer's protocol.
DeltaVision Elite imaging system was used for the imaging of mCherry-GFP-LC3 transfected HeLa cell. For live-cell imaging, chamber was maintained at 37° C. and in 5% CO2. […] The wavelength range of the used filters is as follows: mCherry (Excitation: 575/25 nm, Emission: 625/45 nm); GFP (Excitation: 475/28 nm, Emission: 525/48 nm). Images were processed and analyzed with SoftWorks deconvolution software.

The test system of data set [1] is HeLa human cervical cancer cells. In words: Western blot analysis of LC3 and p62 (autophagy) in HeLa cells. In kind it is cell-based. Particulars: 6 h, 200 nM Rap, 10 nM Baf, 20 μM 21f, compared with DMSO. On the procedure:
HEK293T cell was cultured in Dulbecco modified eagle medium (DMEM) with 10% (v/v) fetal bovine serum (FBS) and 1% (v/v) antibiotic-antimycotic solution. HeLa, DU145, and Ca Ski cells were cultured in RPMI 1640 medium with 10% (v/v) FBS and 1% (v/v) antibiotic-antimycotic solution. The cells were cultured in 100-mm culture dish in an incubator at 37° C., in 5% CO2.
(§1) Cells were lysed with Radio-ImmunoPrecipitation Assay (RIPA) buffer (50 mM Tris, pH 7.8, 150 mM NaCl, 0.5% deoxycholate, 1% IGEPAL CA-630, protease inhibitor cocktail, and phosphatase inhibitors). Protein was obtained by transferring supernatant after centrifugation at 15000 rpm for 20 min. Protein concentration was measured with Micro BCA™ protein assay kit. Overall protein sampling procedure was done at 4° C. Prepared protein samples were analyzed with SDS-PAGE. Protein after electrophoresis was transferred into nitrocellulose membrane. Membrane was blocked with TBST mixed with 2% BSA over at least 1 h at r.t. Primary antibodies were incubated overnight at 4° C. The treatment concentration was as follows: Anti-LC3B (ab51520); 1:1000, anti-S6K1 (ab32359); 1:1000, anti-phospho-T389 S6K1 (ab2571); 1:800, anti-p62 (CST 5114); 1:1000, anti-glyceraldehyde-3-phosphate dehydrogenase (GAPDH) (CST 2118); 1:1000, anti-phospho-S65 4E-BP1 (CST 9451); 1:1000, anti-phospho-S757 ULK1 (CST 6888); 1:800, anti-phospho-S473 Akt (CST 4058); 1:1000, anti-phospho-T172 AMPKα (CST 2531). After washing with TBST, HRP-labeled anti-rabbit IgG secondary antibody was treated at room temperature for 1 h. After washing with TBST, developing by Amersham ECL prime solution was done. Chemiluminescent signal was imaged by ChemiDoc™ MP imaging system.

The test system of another data set is mTORC1. Description: Western blotting, mTORC1 signalling pathway in HEK293T cells. In kind it is cell-based. Particulars: HEK293T cells. On the procedure: HEK293T cell was cultured in Dulbecco modified eagle medium (DMEM) with 10% (v/v) fetal bovine serum (FBS) and 1% (v/v) antibiotic-antimycotic solution. […] The cells were cultured in 100-mm culture dish in an incubator at 37° C., in 5% CO2.
as §1, with “The treatment concentration was as follows: Anti-LC3B (ab51520); 1:1000, anti-S6K1 (ab32359); 1:1000, anti-phospho-T389 S6K1 (ab2571); 1:800, anti-p62 (CST 5114); 1:1000, anti-glyceraldehyde-3-phosphate dehydrogenase (GAPDH) (CST 2118); 1:1000, anti-phospho-S65 4E-BP1 (CST 9451); 1:1000, anti-phospho-S757 ULK1 (CST 6888); 1:800, anti-phospho-S473 Akt (CST 4058); 1:1000, anti-phospho-T172 AMPKα (CST 2531).” left out

T1 sequence (Q9P2J5 whole entry): as above

For `CN(Cc1ccccc1)c1ncnc2c1CN1C(=O)COC[C@@H]1CN2` [Compound 19f], the “concentration-dependent binding to LRS (SPR)” value at Human LRS proteins is “did not bind to LRS in a concentration-dependent manner”. Also, the “dose-dependent inhibition of the LRS-RagD interaction (dose-response curves in ELISA)” value (“dose-dependent inhibition” for short) on LRS-RagD interaction is “did not inhibit the LRS-RagD interaction in a dose-dependent manner”.

`C=CCN1C[C@H]2COC(=O)N2Cc2c(N(C)Cc3ccccc3)ncnc21` [Compound 22f] returned a melting point of 89 to 91 °C. In addition, the “dose-dependent inhibition” value on LRS-RagD interaction is reported as “did not inhibit the LRS-RagD interaction in a dose-dependent manner”.

As for `CO/C1=C\C(C)=C\[C@@H](C)[C@@H](O)[C@@H](C)C/C(C)=C/C=C/[C@H](OC)[C@@H]([C@@H](C)[C@@H](O)[C@H](C)[C@@]2(O)C[C@@H](O)[C@H](C)[C@@H](C(C)C)O2)OC1=O` [bafilomycin, reference compound], the “mCherry and GFP fluorescence (mCherry-GFP-LC3)” value in the data set on HeLa cells is “yellow color”. Besides, in data set [1], the “LC3 I/LC3 II ratio” value is “increased ratio of LC3 I/LC3 II” and the p62 level entry is “accumulation of p62”.

`CN(Cc1ccccc1)c1ncnc2c1[C@@H]1OC[C@H](CN2)N1S(=O)(=O)c1cccc([N+](=O)[O-])c1` came in with a melting point of 101 to 103 °C.

For the compound `CN(Cc1ccccc1)c1ncnc2c1CN(C(=O)OC(C)(C)C)[C@@H]1C=CCN2C1` [Compound 23f], at LRS-RagD interaction, the “dose-dependent inhibition” value is “did not inhibit the LRS-RagD interaction in a dose-dependent manner”.

For `CN(Cc1ccccc1)c1ncnc2c1C1OC[C@@H](CN2)N1C(=O)OC(C)(C)C` [Compound 14f], the “concentration-dependent binding to LRS (SPR)” value on Human LRS proteins is listed as “did not bind to LRS in a concentration-dependent manner”. In addition, the “dose-dependent inhibition” value on LRS-RagD interaction is “did not inhibit the LRS-RagD interaction in a dose-dependent manner”.

Take `CN(Cc1ccccc1)c1ncnc2c1[C@@H]1OC[C@H](CN2)N1C(=O)NCc1ccccc1` [Compound 15f]: the melting point was 67 to 69 °C. Also, on LRS-RagD interaction, the “dose-dependent inhibition” value was “did not inhibit the LRS-RagD interaction in a dose-dependent manner”.

As for `CN(Cc1ccccc1)c1ncnc2c1CN1C[C@@H]1CN2Cc1ccccc1` (some centres unmarked) [Compound 20f], the “amount of phospho-T389 S6K1” value with mTORC1 (20 μM, 3 h) was “less than that of 21f”. Also, the “phosphorylation suppression of S6K1 by western blotting” value with mTORC1 (20 μM, 3 h, phospho-T389 S6K1 relative to DMSO) worked out at 16.4%. Besides, at LRS-RagD interaction, the “dose-dependent inhibition” value is on record as “inhibit the LRS-RagD interaction in a dose-dependent manner” and the “reduction of LRS-RagD interaction by ELISA” value was 15.5%.

Consider `CO[C@H]1C[C@@H]2CC[C@@H](C)[C@@](O)(O2)C(=O)C(=O)N2CCCC[C@H]2C(=O)O[C@H]([C@H](C)C[C@@H]2CC[C@@H](O)[C@H](OC)C2)CC(=O)[C@H](C)/C=C(\C)[C@@H](O)[C@@H](OC)C(=O)[C@H](C)C[C@H](C)/C=C/C=C/C=C/1C` [rapamycin, reference compound], for which the “duration of the effect on mTORC1 within cells” value in the data set on mTORC1 (500 nM, 0 to 24 hours) was “at least 12 hours”.

In turn, `CN(Cc1ccccc1)c1ncnc2c1CN1[C@@H](CN2)COCS1(=O)=O` [Compound 18f] displayed a melting point of 196 to 198 °C. Moreover, on LRS-RagD interaction, the “dose-dependent inhibition” value is on record as “did not inhibit the LRS-RagD interaction in a dose-dependent manner”.
